Data published in patent publication US20260021167A1, “COMPOSITIONS AND METHODS FOR TREATING OR PREVENTING NEURODEGENERATIVE DISEASES” (Delaware State University, priority 2022, published 2026).

Tests used:
N27 cells = experiment: Cell viability (MTT) assay after PFF exposure; type: cell-based, rat; details: N27 cells after PFF (1 μg/ml) exposure for 24 h; compared to PFF only control
Text: Cell Viability Assay. The MTT assay is a colorimetric assay that is based on the conversion of water-soluble MTT (3-(4,5-dimethylthiazol-2-yl)-2,5-diphenyltetrazolium bromide) into formazan crystal by mitochondrial dehydrogenase enzymes, soluble in 100% DMSO. The resulting solution is purple in color, and the color intensity is proportional to the viable cells for each well in a 96-well plate. A variety of SENP-1 inhibitors, such as SUMO-2 aldehyde, Momordin lc, streptonigrin, hinokiflavone, oleanolic acid and siRNA of SENP-1, were treated in N27 cells after PFF (1 μg/ml) exposure for 24 h. After adding 5 mM MTT dye to cells, the color intensity in MTT assays was measured using a spectrophotometer (SpectraMax M5e, Molecular devices, Dover, USA), at 570 nm with a reference wavelength of 630 nm. The cells were incubated with the MTT reagent (ab211091, Abcam) at 37° C. for 3 h, followed by solubilizing the formazan crystals in solution.
In this study, numerous commercially available SENP-1 inhibitors were tested for the recovery effects from preformed fibrils of alpha-synuclein (PFF)-induced PD models in vitro. […]

PFF-injected old mice = experiment: Nesting in PFF-injected mice; type: in vivo, mouse; details: 10 and/or 50 mg/kg oral, vs PFF only
Method: (§1) A mouse model of Parkinson's disease is C57BL/6 male or female mice (50% each) injected with 5 μg of mouse PFF at 12 months old, followed by a treatment below for 6-7 weeks: • 1) without PFF injection, followed by vehicle (control, n=7); • 2) PFF injection, followed by vehicle (PFF only: control, n=8); • 3) PFF injection, followed by daily 10 mg/kg Momordin gavage (n=7-8); • 4) PFF injection, followed by daily 50 mg/kg Momordin gavage (n=7-8).
Nesting. A 5×5 cm cotton nesting patch was placed in a clean cage housing a single animal. On the following day, pictures were taken of the condition of the nesting material utilized and analyzed in a blind manner. The ability of an animal to tear up the cotton nesting material and build a nest dictates the activity and motor coordination levels of the animal. Three dimensionally built nest was given as 5 points as the highest score, and a barely touched nesting patch was considered a low score of 1 point. The points were represented on the graph to show any improvement in nesting capabilities across the groups.

protein aggregates = experiment: Thioflavin-T protein aggregation in brain sections of PFF-injected mice; type: in vivo, mouse
[1] = tested on: phosphorylated α-synuclein; experiment: Western blot of phosphorylated α-synuclein in brain tissue extracts of PFF-injected mice; type: in vivo, mouse; details: both doses, vs PFF only
Method: as §1
Immunoblot Analyses. A total of three protein extractions were performed. In the first extraction, a gentle RIPA buffer containing the low concentration of detergent (25 mM Tris-HCL, 150 mM NaCl, 1% NP-40, 1% sodium deoxycholate and 0.1% SDS) was added with phosphatase inhibitors (100 μL for 10 mL) and 5 mM EDTA. The mixture was sonicated and centrifuged at 14,000 rpm for 10 min. The supernatant was collected for measuring the levels of phosphorylated α-syn, SENP-1 or SUMO-1 conjugated proteins for different groups. […] The primary antibodies pertaining to each protein analyzed were diluted at 1:1000 (p-Ser-129-α-synuclein, Cell signaling; SENP-1, SAB4501345, EMD) and incubated at 4° C. overnight. […] ImageJ was used to analyze specific bands on each blot and measured against the loading control (β-actin) for normalizing each band intensity.

[2] = Passage of the BBB in mice; type: in vivo, mouse; details: 10 or 50 mg/kg
[3] = low and high dosages (10 or 50 mg/kg)
[4] = both 10 and 50 mg/kg oral, PFF-injected mice, vs PFF only

## CC1(C)CC[C@]2(C(=O)O)CC[C@]3(C)C(=CC[C@@H]4[C@@]5(C)CC[C@H](O[C@@H]6O[C@H](C(=O)O)[C@@H](O)[C@H](O[C@@H]7OC[C@@H](O)[C@H](O)[C@H]7O)[C@H]6O)C(C)(C)[C@@H]5CC[C@]43C)[C@@H]2C1 [Momordin lc]
N27 cells
  cell viability from PFF-mediated toxicity (MTT assay): significantly enhanced the cell viability
PFF-injected old mice
  nesting: improves the nesting
Protein aggregates; PFF injection, mouse brains
  level of alpha-synuclein accumulation/aggregation in Thioflavin-T staining in various brain regions: reduced the level of alpha-synuclein accumulation/aggregation
Protein aggregates; [4]
  level of protein aggregates (Thioflavin-T) in the SNc: significantly reduced
  level of protein aggregates (Thioflavin-T) in the striatum: significantly reduced
[1]; midbrain
  phosphorylated α-synuclein in the MB (Western blot, tissue extracts): reversed
[1]; striatum
  phosphorylated α-synuclein in the STR (Western blot, tissue extracts): reversed
[2]
  passage of the BBB: effectively pass the BBB
[3]
  safety in mice: safe
